In ChEMBL document CHEMBL3046960, “Are traditional neem extract preparations as efficient as a commercial formulation of azadirachtin A?” (2011):

Tests used:
Assay type in all cases: functional
Bemisia tabaci = experiment: Insecticidal activity against Bemisia tabaci (sweet potato whitefly) in cucumber plant assessed as mortality rate at 25 mg/L relative to control
[1] = system: Macrosteles quadripunctulatus; experiment: Insecticidal activity against third to fourth-instar nymphs stage Macrosteles quadripunctulatus assessed as mortality rate at 25 mg/L (reference value: 11.4%)
Spodoptera littoralis = experiment: Insecticidal activity against third to fourth instar larvae Spodoptera littoralis in broad bean plant assessed as mortality rate at 25 mg/L (reference value: 33.3%)

Compound | mortality at 25 µg/mL (Bemisia tabaci) [%] | mortality at 25 µg/mL [1] [%] | mortality at 25 µg/mL (Spodoptera littoralis) [%]
C/C=C(\C)C(=O)O[C@H]1C[C@@H](OC(C)=O)[C@@]2(C(=O)OC)CO[C@H]3[C@@H](O)[C@@](C)([C@]45O[C@@]4(C)[C@@H]4C[C@H]5O[C@@H]5OC=C[C@@]54O)[C@H]4[C@]1(CO[C@]4(O)C(=O)OC)[C@@H]32 [AZADIRACHTIN A] | 82.8 | 30 | 83.5
C/C=C(\C)C(=O)O[C@H]1C[C@@H](OC(C)=O)[C@@]2(C(=O)OC)CO[C@H]3[C@@H](O)[C@@](C)([C@]45O[C@@]4(C)[C@H]4C[C@@H]5O[C@@H]5OC=C[C@@]54O)[C@H]4[C@]1(CO[C@]4(O)C(=O)OC)[C@@H]32 [AZADIRACTIN] | 94.1 | 85.7 | 100
